The values below come from patent publication US7534811B2, “Cyclic onium compounds and glucosidase inhibitors” (Kinki University, priority 2003, dated 2009).

Test [1] concerns the target T1, small intestinal α-glucosidase (saccharase) (Rattus norvegicus, UniProt P23739).
T1 construct: Rat intestinal brush border membrane vesicles were prepared; from tissue; host or cells: rat small intestine, brush border membrane vesicles
Briefly: Concentration for 50% inhibition, small intestinal α-glucosidase, sucrose substrate. Format: biochemical. The note with it: rat intestinal brush border membrane vesicles; substrate sucrose (74 mM); pH6.0; 37° C., 30 minutes; read-out: IC50 (μg/ml) Sucrose (converted). On the procedure: (§1) Rat intestinal brush border membrane vesicles were prepared, and a suspension in a 0.1M maleic acid salt buffer solution (pH6.0) was used as small intestinal α-glucosidase (maltase and saccharase).
(§2) 0.05 ml of sample compound solutions of differing concentration were added, respectively, to 0.1 ml of a substrate solution of sucrose (74 mM) and maltose (74 mM), and the solution was preheated at 37° C. for 2 to 3 minutes. 0.05 ml of an enzymatic solution was added thereto and the solution was allowed to incubate for 30 minutes. After incubation, 0.8 ml of water was added thereto and the solution was heated in a boiling water bath for 2 minutes to deactivate the enzyme. Blank was prepared as follows. After the enzymatic solution was added to each sample, water was immediately added, and the resulting mixture was heated in a boiling water bath for 2 minutes to deactivate the enzyme. The amount of d-glucose formed therein was measured using a glucose oxidase method. The substrate and test samples were dissolved in a 0.1M maleic acid buffer solution (pH6.0). The concentrations for 50% inhibition (IC50) were calculated based on the values obtained.

The target in test [2] is small intestinal α-glucosidase (maltase). Put plainly: Concentration for 50% inhibition, small intestinal α-glucosidase, maltose substrate. Format: biochemical. To be noted: rat intestinal brush border membrane vesicles; substrate maltose (74 mM); pH6.0; 37° C., 30 minutes. The method, then: as §1, §2

T1 sequence (P23739 whole entry): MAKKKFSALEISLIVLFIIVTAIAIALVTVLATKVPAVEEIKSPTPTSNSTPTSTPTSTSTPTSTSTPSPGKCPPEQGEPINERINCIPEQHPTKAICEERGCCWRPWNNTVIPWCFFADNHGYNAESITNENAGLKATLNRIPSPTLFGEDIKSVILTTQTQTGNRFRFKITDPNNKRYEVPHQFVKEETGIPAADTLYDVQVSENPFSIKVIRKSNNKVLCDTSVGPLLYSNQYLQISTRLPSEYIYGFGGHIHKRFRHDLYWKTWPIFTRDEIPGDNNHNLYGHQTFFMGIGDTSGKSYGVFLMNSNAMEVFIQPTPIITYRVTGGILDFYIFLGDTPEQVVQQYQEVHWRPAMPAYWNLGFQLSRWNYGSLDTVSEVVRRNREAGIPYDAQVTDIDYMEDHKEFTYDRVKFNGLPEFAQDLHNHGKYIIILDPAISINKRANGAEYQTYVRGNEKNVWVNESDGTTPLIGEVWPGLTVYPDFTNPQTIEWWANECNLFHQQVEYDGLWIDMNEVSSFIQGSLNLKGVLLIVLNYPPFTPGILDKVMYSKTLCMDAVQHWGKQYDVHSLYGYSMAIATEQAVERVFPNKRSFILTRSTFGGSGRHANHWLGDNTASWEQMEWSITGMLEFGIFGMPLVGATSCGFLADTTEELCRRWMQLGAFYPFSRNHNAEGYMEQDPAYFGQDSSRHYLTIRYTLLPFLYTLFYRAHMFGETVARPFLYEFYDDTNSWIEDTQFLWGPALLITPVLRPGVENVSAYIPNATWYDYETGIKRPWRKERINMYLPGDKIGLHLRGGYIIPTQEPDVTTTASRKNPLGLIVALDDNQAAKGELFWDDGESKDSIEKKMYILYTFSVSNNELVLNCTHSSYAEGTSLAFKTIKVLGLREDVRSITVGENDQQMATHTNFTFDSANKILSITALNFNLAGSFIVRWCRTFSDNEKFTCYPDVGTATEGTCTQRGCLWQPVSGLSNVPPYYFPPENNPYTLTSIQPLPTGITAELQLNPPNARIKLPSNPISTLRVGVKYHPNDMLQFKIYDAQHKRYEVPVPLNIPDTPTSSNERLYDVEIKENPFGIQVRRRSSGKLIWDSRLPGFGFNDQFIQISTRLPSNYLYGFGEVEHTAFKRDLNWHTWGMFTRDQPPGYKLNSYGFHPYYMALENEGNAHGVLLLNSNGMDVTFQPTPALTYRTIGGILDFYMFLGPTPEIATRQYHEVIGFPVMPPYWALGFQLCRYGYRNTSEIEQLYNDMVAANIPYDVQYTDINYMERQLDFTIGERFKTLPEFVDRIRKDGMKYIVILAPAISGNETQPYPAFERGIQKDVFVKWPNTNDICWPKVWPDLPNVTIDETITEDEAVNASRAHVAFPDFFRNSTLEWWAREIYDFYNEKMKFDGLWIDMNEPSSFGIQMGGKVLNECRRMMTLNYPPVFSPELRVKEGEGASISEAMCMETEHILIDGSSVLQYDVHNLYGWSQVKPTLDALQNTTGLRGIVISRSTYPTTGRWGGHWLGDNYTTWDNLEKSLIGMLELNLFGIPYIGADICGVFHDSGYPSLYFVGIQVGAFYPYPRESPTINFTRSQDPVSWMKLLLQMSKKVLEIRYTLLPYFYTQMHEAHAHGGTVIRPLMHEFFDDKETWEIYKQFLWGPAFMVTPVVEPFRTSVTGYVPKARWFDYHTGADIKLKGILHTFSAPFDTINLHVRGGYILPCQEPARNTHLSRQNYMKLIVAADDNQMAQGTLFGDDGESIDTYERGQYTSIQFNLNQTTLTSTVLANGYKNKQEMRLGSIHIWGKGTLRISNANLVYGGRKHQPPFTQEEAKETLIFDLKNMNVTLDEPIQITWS

Take `OC[C@@H]1[C@@H](O)[C@H](O)C[S@@+]1C[C@@H](O)[C@@H](O)CO` [Compound 1]: the IC50 in test [1] is 5.29 µM. The “IC50 (μg/ml) Maltose” value in test [2] came out at 5.71 µg/mL.

On to `C[S+]1C[C@H](O)[C@@H](O)[C@@H]1CO` (stereo partly shown) [Compound 2], for which the IC50 in test [1] was 339 µM. Moreover, the “IC50 (μg/ml) Maltose” value in test [2] was determined as 79.3 µg/mL.
